# Experimental data reported in patent US6914045B2, “Glycopeptide antibiotics” (Wyeth Holdings Corporation, priority 2001, dated 2005).
# Tests used:
# Test in all cases: in vitro antibacterial evaluation, MIC by broth dilution
# Format in all cases: cell-based
# Streptococcus sp. = details: broth dilution, 18 hours at 35° C.
# Method in brief: (§1)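 Inoculum 5×10^5 CFU/mL; concentrations 64 to 0.06 μg/mL; MIC defined as lowest inhibitory level. Conducted by broth dilution under NCCLS guidelines.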
# Staphylococcus sp. = details: broth dilution, 18 hours at 35° C.
# Method in brief: as §1
# Enterococcus sp. = details: broth dilution, 18 hours at 35° C.
# Method in brief: as §1
# Escherichia coli = details: 18 hours at 35° C.
smiles,measurement,setting,value
"CC(c1ccccc1)C1NC(=O)CNC(=O)C(CO)NC(=O)C(C(O)C2CNC(=N)N2C2OC(CO)C(O)C(O)C2O)NC(=O)C(C(O)C2CNC(=N)N2)NC(=O)C(Cc2ccc(OC3OC(CO)C(OC4OC(CO)C(O)C(O)C4OCc4ccc(OCc5ccccc5)cc4)C(O)C3O)cc2)NC1=O (stereo not drawn) [Example 231b, Cyclo[glycyl-β-methylphenylalanyl-O-[4-O-[2-O-[4-(phenylmethoxy)benzyl]hexopyranosyl]-hexopyranosyl]tyrosyl-3-(2-iminoimidazolidin-4-yl)seryl-3-(3-hexopyranosyl-2-iminoimidazolidin-4-yl)serylseryl]]",MIC Streptococcus agalactiae (GC 4564),Streptococcus sp.,1 to 8 µg/mL
same,MIC Streptococcus pneumoniae (ATCC 6301),Streptococcus sp.,0.25 to 2 µg/mL
same,MIC Streptococcus pneumoniae (GC 1894),Streptococcus sp.,<0.06 to 2 µg/mL
same,MIC Streptococcus pneumoniae (GC 4565),Streptococcus sp.,0.5 to 8 µg/mL
same,MIC Streptococcus pyogenes (GC 4563),Streptococcus sp.,1 to 8 µg/mL
same,MIC Streptococcus pneumoniae (ATCC 6301),"Streptococcus sp.; inoculum 5×10^5 CFU/mL, strain ATCC 6301",0.25 to 2 µg/mL
same,MIC Streptococcus pneumoniae (GC 1894),"Streptococcus sp.; inoculum 5×10^5 CFU/mL, strain GC 1894",<0.06 to 2 µg/mL
same,MIC Streptococcus pyogenes (GC 4563),"Streptococcus sp.; inoculum 5×10^5 CFU/mL, strain GC 4563",1 to 8 µg/mL
same,MIC Streptococcus agalactiae (GC 4564),"Streptococcus sp.; inoculum 5×10^5 CFU/mL, strain GC 4564",1 to 8 µg/mL
same,MIC Streptococcus pneumoniae (GC 4565),"Streptococcus sp.; inoculum 5×10^5 CFU/mL, strain GC 4565",0.5 to 8 µg/mL
same,MIC Coagulase Negative Staphylococcus (GC 4547),Staphylococcus sp.,4 to 32 µg/mL
same,MIC Coagulase Negative Staphylococcus (GC 4548),Staphylococcus sp.,2 to 32 µg/mL
same,MIC Coagulase Negative Staphylococcus (GC 4549),Staphylococcus sp.,2 to 16 µg/mL
same,MIC Coagulase Negative Staphylococcus (GC 4551),Staphylococcus sp.,8 to 32 µg/mL
same,MIC Coagulase Negative Staphylococcus (GC 6257),Staphylococcus sp.,1 to 32 µg/mL
same,MIC Staphylococcus aureus (ATCC 29213),Staphylococcus sp.,4 to 64 µg/mL
same,MIC Staphylococcus aureus (GC 1131),Staphylococcus sp.,4 to 64 µg/mL
same,MIC Staphylococcus aureus (GC 3051),Staphylococcus sp.,4 to 64 µg/mL
same,MIC Staphylococcus aureus (GC 3053),Staphylococcus sp.,8 to 64 µg/mL
same,MIC Staphylococcus aureus (GC 4541),Staphylococcus sp.,4 to 32 µg/mL
same,MIC Staphylococcus aureus (GC 4542),Staphylococcus sp.,4 to 32 µg/mL
same,MIC Staphylococcus aureus (GC 4544),Staphylococcus sp.,4 to 64 µg/mL
same,MIC Staphylococcus aureus (GC 4545),Staphylococcus sp.,4 to 32 µg/mL
same,MIC Staphylococcus aureus-SMITH (GC 4543),Staphylococcus sp.,4 to 64 µg/mL
same,MIC Staphylococcus haemolyticus (GC 4546),Staphylococcus sp.,4 to 32 µg/mL
same,MIC Staphylococcus aureus (ATCC 29213),Staphylococcus sp.; strain ATCC 29213,4 to 64 µg/mL
same,MIC Staphylococcus aureus (GC 1131),Staphylococcus sp.; strain GC 1131,4 to 64 µg/mL
same,MIC Staphylococcus aureus (GC 3051),Staphylococcus sp.; strain GC 3051,4 to 64 µg/mL
same,MIC Staphylococcus aureus (GC 3053),Staphylococcus sp.; strain GC 3053,8 to 64 µg/mL
same,MIC Staphylococcus aureus (GC 4541),Staphylococcus sp.; strain GC 4541,4 to 32 µg/mL
same,MIC Staphylococcus aureus (GC 4542),Staphylococcus sp.; strain GC 4542,4 to 32 µg/mL
same,MIC Staphylococcus aureus-SMITH (GC 4543),Staphylococcus sp.; strain GC 4543,4 to 64 µg/mL
same,MIC Staphylococcus aureus (GC 4544),Staphylococcus sp.; strain GC 4544,4 to 64 µg/mL
same,MIC Staphylococcus aureus (GC 4545),Staphylococcus sp.; strain GC 4545,4 to 32 µg/mL
same,MIC Staphylococcus haemolyticus (GC 4546),Staphylococcus sp.; strain GC 4546,4 to 32 µg/mL
same,MIC Coagulase Negative Staphylococcus (GC 4547),Staphylococcus sp.; strain GC 4547,4 to 32 µg/mL
same,MIC Coagulase Negative Staphylococcus (GC 4548),Staphylococcus sp.; strain GC 4548,2 to 32 µg/mL
same,MIC Coagulase Negative Staphylococcus (GC 4549),Staphylococcus sp.; strain GC 4549,2 to 16 µg/mL
same,MIC Coagulase Negative Staphylococcus (GC 4551),Staphylococcus sp.; strain GC 4551,8 to 32 µg/mL
same,MIC Coagulase Negative Staphylococcus (GC 6257),Staphylococcus sp.; strain GC 6257,1 to 32 µg/mL
same,MIC Enterococcus avium (GC 4558),Enterococcus sp.,8 to 64 µg/mL
same,MIC Enterococcus faecalis (ATCC 29212),Enterococcus sp.,8 to 128 µg/mL
same,MIC Enterococcus faecalis (GC 2242),Enterococcus sp.,8 to 64 µg/mL
same,MIC Enterococcus faecalis (GC 2691),Enterococcus sp.,16 to 64 µg/mL
same,MIC Enterococcus faecalis (GC 3059),Enterococcus sp.,16 to 128 µg/mL
same,MIC Enterococcus faecalis (GC 4552),Enterococcus sp.,8 to 128 µg/mL
same,MIC Enterococcus faecalis (GC 4553),Enterococcus sp.,8 to 128 µg/mL
same,MIC Enterococcus faecalis (GC 4554),Enterococcus sp.,16 to 128 µg/mL
same,MIC Enterococcus faecalis (GC 6189),Enterococcus sp.,8 to 64 µg/mL
same,MIC Enterococcus faecium (GC 2243),Enterococcus sp.,8 to 128 µg/mL
same,MIC Enterococcus faecium (GC 4556),Enterococcus sp.,16 to 128 µg/mL
same,MIC Enterococcus faecium (GC 4557),Enterococcus sp.,4 to 16 µg/mL
same,MIC Enterococcus faecalis (ATCC 29212),"Enterococcus sp.; inoculum 5×10^5 CFU/mL, strain ATCC 29212",8 to 128 µg/mL
same,MIC Enterococcus faecalis (GC 2242),"Enterococcus sp.; inoculum 5×10^5 CFU/mL, strain GC 2242",8 to 64 µg/mL
same,MIC Enterococcus faecium (GC 2243),"Enterococcus sp.; inoculum 5×10^5 CFU/mL, strain GC 2243",8 to 128 µg/mL
same,MIC Enterococcus faecalis (GC 2691),"Enterococcus sp.; inoculum 5×10^5 CFU/mL, strain GC 2691",16 to 64 µg/mL
same,MIC Enterococcus faecalis (GC 3059),"Enterococcus sp.; inoculum 5×10^5 CFU/mL, strain GC 3059",16 to 128 µg/mL
same,MIC Enterococcus faecalis (GC 4552),"Enterococcus sp.; inoculum 5×10^5 CFU/mL, strain GC 4552",8 to 128 µg/mL
same,MIC Enterococcus faecalis (GC 4553),"Enterococcus sp.; inoculum 5×10^5 CFU/mL, strain GC 4553",8 to 128 µg/mL
same,MIC Enterococcus faecalis (GC 4554),"Enterococcus sp.; inoculum 5×10^5 CFU/mL, strain GC 4554",16 to 128 µg/mL
same,MIC Enterococcus faecium (GC 4556),"Enterococcus sp.; inoculum 5×10^5 CFU/mL, strain GC 4556",16 to 128 µg/mL
same,MIC Enterococcus faecium (GC 4557),"Enterococcus sp.; inoculum 5×10^5 CFU/mL, strain GC 4557",4 to 16 µg/mL
same,MIC Enterococcus avium (GC 4558),"Enterococcus sp.; inoculum 5×10^5 CFU/mL, strain GC 4558",8 to 64 µg/mL
same,MIC Enterococcus faecalis (GC 6189),"Enterococcus sp.; inoculum 5×10^5 CFU/mL, strain GC 6189",8 to 64 µg/mL
same,MIC Escherichia coli (ATCC 25922),Escherichia coli,>128 µg/mL
same,MIC Escherichia coli (GC 4559),Escherichia coli,>128 µg/mL
same,MIC Escherichia coli (GC 4560),Escherichia coli,0.25 to 4 µg/mL
